The values below come from patent US20110022129A1, “NANOPARTICLES FOR PHOTODYNAMIC THERAPY” (priority 2007, published 2011).

Converted amounts (≈) assume the structure as drawn.

The nature of one series: physchem. The note with it: aqueous with cosolvent or surfactant or cyclodextrin, kinetic from dmso stock.
Series [1] has as its system AB12, murine malignant pleural mesothelioma (MPM). In words: External-beam (980 nm infrared) nanophosphor-mediated photodynamic therapy of AB12 flank tumors in mice. It counts as in vivo, mouse (BALB/cJ). The note with it: for total number of surviving animals: sixty day observation, survivors/group size. As for the experimental part: Six to twelve week old, female BALB/cJ (AB12 tumor host) mice, obtained pathogen-free from Taconic Farms, were used for all of the experiments. Animals were kept in conventional conditions in micro-isolator cages in a laminar flow unit under ambient light with full access to food and water during experiments.
AB12, murine malignant pleural mesothelioma (MPM) was utilized for tumor inoculation. Cells were maintained in complete DMEM/F12 culture media in a 37° C. humidified 5% CO2 incubator.
Seventy balb/C mice were inoculated with 5×10^5 AB12, malignant mesothelioma cells via subcutaneous flank injection. The subsequent tumors were measured using digital calipers three times per week until the tumors reached ˜200-300 mm^3 at which time the mice were given their first treatment. Mice were divided into […]. The groups were as follows: i. Control, ii. Infrared light-Nanophosphor-Photosensitizer (IR-NP-PS), iii. IR-NP, iv. IR-PS, v. IR alone, vi. NP alone, and vii. PS alone. Groups ii, iii, and vi were administered intra-tumoral injections with 100 μl of 25 mg/ml nanophosphor suspension in saline at 72 and 48 h prior to only the first treatment. Groups ii, iv, and vii were administered weekly intra-peritoneal (i.p.) injections of 10 mg/kg Photofrin™, twenty-four hours before first treatment of each week.
For this procedure mice were anesthetized with i.p. ketamine and xylazine, 80 mg/kg and 12 mg/kg, respectively. A maximum dose of 1.0 W of 980 nm light (BW Tek) at the treatment surface was measured using an IR thermopile detector (Coherent, Inc) for a total dose of 28.3 J/cm^2. Pulsed light delivery method of 1 second ON, 2 seconds OFF for 1.5 hours was utilized to minimize damage of healthy tissue due to heat from the infrared light by allowing the tissue to dissipate the heat between delivery cycles. […] Over the course of the entire treatment program tumors were measured three times weekly and mice were monitored for signs of morbidity for 60 days or until tumors reached endpoint of 500 mm^3.

From the text for physchem: Nanoparticles were isolated as previously described, and the concentration of free β-carotene in the filtrate measured.

As usually defined, the solubility is the concentration that dissolves in the medium under given conditions. In the case of `CC1=C(/C=C/C(C)=C/C=C/C(C)=C/C=C/C=C(C)/C=C/C=C(C)/C=C/C2=C(C)CCCC2(C)C)C(C)(C)CCC1` [β-carotene], the solubility in “physchem” is around 50 µg/mL (≈ 93.1 µM).
On to Photofrin [IR-PS], for which the tumor regression result in series [1] (over treatment program, in words) is “No animals”. Also, in series [1], the “total number of surviving animals” value is on record as 0/10.
As for Photofrin [PS alone], the “total number of surviving animals” value in series [1] was 0/9.
